{"source": "paper doi:10.1101/2020.05.25.114512v1", "about": "(bioRxiv, 2020)", "key": {"neurotensin": {"test_system": "neurotensin", "conditions": "ref [25]; cited from earlier work"}, "pancreatic elastase": {"test_system": "pancreatic elastase", "conditions": "previously listed in the literature; cited from earlier work"}, "Cytotoxic activity [1]": {"assay": "Cytotoxic activity", "type": "cell-based", "conditions": "human, KB-3-1 cells (cervix carcinoma)"}, "[2]": {"test_system": "pyocyanin produced by Pseudomonas aeruginosa strain PA14", "assay": "Pyocyanin assay", "type": "cell-based", "conditions": "administered to Pseudomonas aeruginosa"}, "E. coli TolC mutants": {"test_system": "E. coli TolC mutants", "assay": "Bacterial cell entry test, LC-MS analysis", "type": "cell-based, Escherichia coli", "conditions": "concluded from fluorescence microscopy and LC-MS analysis"}, "Cytotoxic activity [3]": {"assay": "Cytotoxic activity", "type": "cell-based", "conditions": "human, HCT-116 cells (colon carcinoma)"}}}
{"compound": "YIYY (bicyclic or more) [cittilin B]", "values": [{"measurement": "IC50, neurotensin inhibitor", "setting": "neurotensin", "result": 30, "unit": "µg/mL"}]}
{"compound": "CC[C@H](C)[C@@H]1NC(=O)[C@@H](N)Cc2ccc(OC)c(c2)-c2cc3cc(c2O)Oc2ccc(cc2)C[C@@H](C(=O)O)NC(=O)[C@H](C3)NC1=O", "note": "[cittilin A]", "values": [{"measurement": "inhibition of pancreatic elastase (in words)", "setting": "pancreatic elastase", "result": "moderate inhibitor"}, {"measurement": "IC50 at 5 days", "setting": "Cytotoxic activity [1]", "result": 74.8, "unit": "µg/mL"}, {"measurement": "inhibition of pyocyanin production (in words)", "setting": "[2]", "result": "no inhibition of pyocyanin production"}, {"measurement": "cell entry capabilities for E. coli (authors' conclusion, in words)", "setting": "E. coli TolC mutants", "result": "poor cell entry capabilities"}, {"measurement": "IC50 at 5 days", "setting": "Cytotoxic activity [3]", "result": 110, "unit": "µg/mL"}]}
